Experimental data reported in ChEMBL document CHEMBL1201862, “PubChem BioAssay data set” (2004).
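Step 1: Grow cells in 96-well plates. Step 2: Expose to compound for 48 hours at 5 concentrations. Step 3: Interpolate endpoints linearly; if unreached, use highest concentration. At the GI50, growth is halved.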 Activity calls are given as the source filed them. Cut-off read from the data, not from the text of the source: active = GI50 up to about 1.1 µM and inactive = higher.

What was measured:
Assay in all cases: NCI tumour cell line growth inhibition, 48 h
[1] = tested on: MDA-MB-231
[2] = tested on: CAKI-1
[3] = tested on: BT-549
[4] = tested on: MDA-MB-435
[5] = tested on: SF-295
[6] = tested on: Hs-578T
[7] = tested on: 786-0
[8] = tested on: A549
[9] = tested on: NCI-H460
[10] = tested on: M14
[11] = tested on: HOP-62
[12] = tested on: SNB-75
[13] = tested on: HOP-92
[14] = tested on: HCC 2998
[15] = tested on: HT-29
[16] = tested on: RXF 393
[17] = tested on: UACC-62
[18] = tested on: SR
[19] = tested on: K562
[20] = tested on: CCRF-CEM

SMILES | GI50 [1] | GI50 [2] | GI50 [3] | GI50 [4] | GI50 [5] | GI50 [6] | GI50 [7] | GI50 [8] | GI50 [9] | GI50 [10] | GI50 [11] | GI50 [12] | GI50 [13] | GI50 [14] | GI50 [15] | GI50 [16] | GI50 [17] | GI50 [18] | GI50 [19] | GI50 [20]
O=C(O)c1ccccc1-c1ccccc1C(=O)Nc1ccc2c(c1)Cc1cc(F)ccc1-2 | 26.3 µM (inactive) | 30.4 µM (inactive) | 18.9 µM (inactive) | 32.5 µM (inactive) | 26.4 µM (inactive) | 54.8 µM (inactive) | 24.3 µM (inactive) | 24.5 µM (inactive) | 26.6 µM (inactive) | 19.7 µM (inactive) | 24.9 µM (inactive) | 26.6 µM (inactive) | 37.9 µM (inactive) | 16.3 µM (inactive) | 22.8 µM (inactive) | 32.2 µM (inactive) | 17.7 µM (inactive) | 18 µM (inactive) |  | 
Cc1ccc2c(O)cc(-c3ccccc3)nc2n1 | 0.467 µM (active) | 0.0564 µM (active) | 0.122 µM (active) | < 0.01 µM (active) | 0.0585 µM (active) | 0.091 µM (active) | 0.222 µM (active) | 0.221 µM (active) | 0.0574 µM (active) | 0.0643 µM (active) | 0.366 µM (active) | 0.0664 µM (active) | 1.44 µM (inactive) | 0.157 µM (active) | 0.0378 µM (active) | 0.127 µM (active) | 0.0521 µM (active) | < 0.0306 µM (active) | 0.0366 µM (active) | 0.0887 µM (active)
CC(C)N1CCN(c2ccncc2S(=O)(=O)N2CCCCC2)CC1 | > 100 µM (inactive) | > 100 µM (inactive) | > 100 µM (inactive) | > 100 µM (inactive) | > 100 µM (inactive) | > 100 µM (inactive) | > 100 µM (inactive) | > 100 µM (inactive) | > 100 µM (inactive) | > 100 µM (inactive) | > 100 µM (inactive) | > 100 µM (inactive) | > 100 µM (inactive) | > 100 µM (inactive) | > 100 µM (inactive) | > 100 µM (inactive) | > 100 µM (inactive) | > 100 µM (inactive) | > 100 µM (inactive) | 
COc1ccc2[nH]c3c(C)c4ccnc(NCCCN(C)CCCNc5ccc6ncn7c8ccccc8c(=O)c5c67)c4c(C)c3c2c1 | 0.322 µM (active) | 0.242 µM (active) | 1.06 µM (active) | 0.713 µM (active) | 0.34 µM (active) | 3.15 µM (inactive) | 0.0632 µM (active) | 0.106 µM (active) | 0.0782 µM (active) | 0.998 µM (active) | 0.275 µM (active) | 1.71 µM (inactive) | 1.68 µM (inactive) | 0.0578 µM (active) | 0.0141 µM (active) | 0.256 µM (active) | 1.71 µM (inactive) | 0.0197 µM (active) | 0.0632 µM (active) | 0.0394 µM (active)
CCn1c(-c2ccc(C)cc2)cs/c1=N\C(P(=O)(O)O)P(=O)(O)O | > 100 µM (inactive) | > 100 µM (inactive) | > 100 µM (inactive) | > 100 µM (inactive) | > 100 µM (inactive) | > 100 µM (inactive) | > 100 µM (inactive) | > 100 µM (inactive) | > 100 µM (inactive) | > 100 µM (inactive) | > 100 µM (inactive) | > 100 µM (inactive) | > 100 µM (inactive) | > 100 µM (inactive) | > 100 µM (inactive) | > 100 µM (inactive) | > 100 µM (inactive) | > 100 µM (inactive) | > 100 µM (inactive) | > 100 µM (inactive)
OCCOCCN1CCN(c2nc(N3CCCC3)c3nc(Cl)c(NCc4ccccc4)nc3n2)CC1 | 16.9 µM (inactive) | 16 µM (inactive) | 15.3 µM (inactive) | 11.7 µM (inactive) | 14.5 µM (inactive) | 17.7 µM (inactive) | 13 µM (inactive) | 13 µM (inactive) | 11.5 µM (inactive) | 11.6 µM (inactive) | 12.6 µM (inactive) | 21 µM (inactive) | 12.9 µM (inactive) | 4.29 µM (inactive) | 3.92 µM (inactive) | 1.98 µM (inactive) | 14 µM (inactive) | 4.38 µM (inactive) | 3.94 µM (inactive) | 12.7 µM (inactive)
O=c1[nH]cc(/C=N\Nc2ccccc2)c(=O)[nH]1 | > 100 µM (inactive) | > 100 µM (inactive) | > 100 µM (inactive) | > 100 µM (inactive) | 25.7 µM (inactive) | > 100 µM (inactive) | > 100 µM (inactive) | > 100 µM (inactive) | 47.8 µM (inactive) | > 100 µM (inactive) | > 10 µM (inactive) | > 100 µM (inactive) | > 100 µM (inactive) | > 100 µM (inactive) | 49.2 µM (inactive) | > 100 µM (inactive) | 66.7 µM (inactive) | > 100 µM (inactive) | 3.96 µM (inactive) | > 100 µM (inactive)
Cc1ccc(Nc2n[nH]c(NS(=O)(=O)c3cc(C)c(Cl)cc3S)n2)cc1 | > 100 µM (inactive) | > 100 µM (inactive) | > 100 µM (inactive) | > 100 µM (inactive) | > 100 µM (inactive) | > 100 µM (inactive) | > 100 µM (inactive) | > 100 µM (inactive) | > 100 µM (inactive) | > 100 µM (inactive) | > 100 µM (inactive) | > 100 µM (inactive) | > 100 µM (inactive) | > 100 µM (inactive) | > 100 µM (inactive) | > 100 µM (inactive) | > 100 µM (inactive) | > 100 µM (inactive) | > 100 µM (inactive) | > 100 µM (inactive)
CCc1nc(N)nc(N)c1-c1ccc(Cl)c(Cl)c1 [ETOPRINE] | > 100 µM (inactive) | 32 µM (inactive) | 51.3 µM (inactive) | 0.818 µM (active) | 0.738 µM (active) | 43 µM (inactive) | 0.653 µM (active) | 0.789 µM (active) | 0.506 µM (active) | 0.675 µM (active) | 2.93 µM (inactive) | 35.1 µM (inactive) | 13.3 µM (inactive) | 12.4 µM (inactive) | 0.879 µM (active) | 59.3 µM (inactive) | 0.711 µM (active) | 0.755 µM (active) |  | > 100 µM (inactive)
O=C1/C(=C/c2cccs2)N=C(c2ccccc2)N1C1Nc2cc3c(cc2S1)NC(N1C(=O)/C(=C/c2cccs2)N=C1c1ccccc1)S3 (centres undefined) | 30.2 µM (inactive) | 48.6 µM (inactive) | 18.1 µM (inactive) | 17.7 µM (inactive) | 60.1 µM (inactive) | 24.2 µM (inactive) | 16.4 µM (inactive) | 14.6 µM (inactive) | 6.97 µM (inactive) | 18.2 µM (inactive) | 30.8 µM (inactive) | 25.4 µM (inactive) | > 100 µM (inactive) | 19.3 µM (inactive) | 25.3 µM (inactive) | 23.3 µM (inactive) |  | 3.07 µM (inactive) | 40.9 µM (inactive) | 
Nc1ccc(C(=O)Nn2c(-c3ccccc3)nc3ccccc3c2=O)cc1 | > 100 µM (inactive) |  | > 100 µM (inactive) | > 100 µM (inactive) | > 100 µM (inactive) | 14.1 µM (inactive) | > 100 µM (inactive) | > 100 µM (inactive) | > 100 µM (inactive) | > 100 µM (inactive) | > 100 µM (inactive) | 89.7 µM (inactive) | > 100 µM (inactive) | > 100 µM (inactive) | > 100 µM (inactive) | > 100 µM (inactive) | > 100 µM (inactive) | > 100 µM (inactive) | > 100 µM (inactive) | > 100 µM (inactive)
Clc1ccc(C2=C(c3ccccc3)C(c3ccc(Cl)cc3)N3C(=N[C@H]4CCCC[C@@H]43)N2)cc1 (some centres undefined) | 14.9 µM (inactive) | 16.1 µM (inactive) | 14.6 µM (inactive) | 14.5 µM (inactive) | 11.6 µM (inactive) | 19.4 µM (inactive) | 14.7 µM (inactive) | 10.3 µM (inactive) | 2.99 µM (inactive) | 12.4 µM (inactive) |  | 15.2 µM (inactive) | 9.59 µM (inactive) | 3.08 µM (inactive) | 3.27 µM (inactive) | 13.9 µM (inactive) | 16.7 µM (inactive) | 2.09 µM (inactive) | 2.3 µM (inactive) | 3.58 µM (inactive)
Cc1ccc(C(=O)Cn2c(C(=O)/C=C/c3cccs3)nc3ccccc32)cc1 | 71.3 µM (inactive) |  | 34.4 µM (inactive) | 21.3 µM (inactive) |  | 20.7 µM (inactive) | 45.5 µM (inactive) | 32.6 µM (inactive) | 22.4 µM (inactive) | 49.9 µM (inactive) | 67.1 µM (inactive) | > 100 µM (inactive) | 93.5 µM (inactive) | 21 µM (inactive) | 38.5 µM (inactive) | 94.6 µM (inactive) | 87.1 µM (inactive) | 6.68 µM (inactive) | 25.8 µM (inactive) | 11.5 µM (inactive)
COC(=O)c1c(O)ccc2c1c1c(n2Cc2ccccn2)C(=O)c2ccccc2C1=O | > 100 µM (inactive) | 80.5 µM (inactive) | > 100 µM (inactive) | 86.7 µM (inactive) | 20.2 µM (inactive) | 46.1 µM (inactive) | 30.9 µM (inactive) | 29.8 µM (inactive) | 40.3 µM (inactive) | > 100 µM (inactive) | 26.7 µM (inactive) |  | 26.5 µM (inactive) | 13.2 µM (inactive) | 4.22 µM (inactive) | 52.5 µM (inactive) | > 100 µM (inactive) | 22 µM (inactive) | > 100 µM (inactive) | 80 µM (inactive)
